Legend:
Assay in all cases: biochemical
Set-up in all cases: KINOMEscan competition binding panel (Eurofins DiscoverX), single concentration, % inhibition
ACVR2A = ACVR2A (Homo sapiens, UniProt P27037); conditions: read-out: 7 at 1 µM % inhibition
Outline: (§1)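 KINOMEscan binding panel of >400 kinases, run by Eurofins DiscoverX, with compounds tested at a single concentration of 1 µM.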

ASK2 = target: T1, ASK2 (Homo sapiens, UniProt O95382); conditions: read-out: 7 at 1 µM % inhibition
T1 construct: gene MAP3K6
Outline: as §1

CSNK1A1 = CSNK1A1 (Homo sapiens, UniProt P48729); conditions: read-out: 7 at 1 µM % inhibition
Outline: as §1

CSNK1G3 = CSNK1G3 (Homo sapiens, UniProt Q9Y6M4); conditions: read-out: 7 at 1 µM % inhibition
Outline: as §1

DDR1 = DDR1 (Homo sapiens, UniProt Q08345); conditions: read-out: 7 at 1 µM % inhibition
Outline: as §1

DYRK2 = DYRK2 (Homo sapiens, UniProt Q92630); conditions: read-out: 7 at 1 µM % inhibition
Outline: as §1

EGFR(L858R) = EGFR(L858R) (Homo sapiens, UniProt P00533, L858R); conditions: read-out: 7 at 1 µM % inhibition
Outline: as §1

EGFR(L861Q) = EGFR(L861Q) (Homo sapiens, UniProt P00533, L861Q); conditions: read-out: 7 at 1 µM % inhibition
Outline: as §1

EIF2AK1 = EIF2AK1 (Homo sapiens, UniProt Q9BQI3); conditions: read-out: 7 at 1 µM % inhibition
Outline: as §1

FLT3(D835V) = FLT3(D835V) (Homo sapiens, UniProt P36888, D835V); conditions: read-out: 7 at 1 µM % inhibition
Outline: as §1

HIPK2 = HIPK2 (Homo sapiens, UniProt Q9H2X6); conditions: read-out: 7 at 1 µM % inhibition
Outline: as §1

KIT(V559D) = KIT(V559D) (Homo sapiens, UniProt P10721, V559D); conditions: read-out: 7 at 1 µM % inhibition
Outline: as §1

LATS1 = LATS1 (Homo sapiens, UniProt O95835); conditions: read-out: 7 at 1 µM % inhibition
Outline: as §1

MAP3K3 = MAP3K3 (Homo sapiens, UniProt Q99759); conditions: read-out: 7 at 1 µM % inhibition
Outline: as §1

MEK6 = target: T2, MEK6 (Homo sapiens, UniProt P52564); conditions: read-out: 7 at 1 µM % inhibition
T2 construct: gene MAP2K6
Outline: as §1

MERTK = MERTK (Homo sapiens, UniProt Q12866); conditions: read-out: 7 at 1 µM % inhibition
Outline: as §1

PKNB(M.tuberculosis) = PKNB(M.tuberculosis) (Mycobacterium tuberculosis, UniProt P9WI81); conditions: read-out: 7 at 1 µM % inhibition (pathogen kinases)
Outline: as §1

SNARK = target: T3, SNARK (Homo sapiens, UniProt Q9H093); conditions: read-out: 7 at 1 µM % inhibition
T3 construct: gene NUAK2
Outline: as §1

SRPK1 = SRPK1 (Homo sapiens, UniProt Q96SB4); conditions: read-out: 7 at 1 µM % inhibition
Outline: as §1

TGFBR1 = TGFBR1 (Homo sapiens, UniProt P36897); conditions: read-out: 7 at 1 µM % inhibition
Outline: as §1

TIE2 = target: T4, TIE2 (Homo sapiens, UniProt Q02763); conditions: read-out: 7 at 1 µM % inhibition
T4 construct: gene TEK
Outline: as §1

TNIK = TNIK (Homo sapiens, UniProt Q9UKE5); conditions: read-out: 7 at 1 µM % inhibition
Outline: as §1

[1] = target: T5, TYK2(JH1domain-catalytic) (Homo sapiens, UniProt P29597); conditions: read-out: 7 at 1 µM % inhibition
T5 construct: JH1domain-catalytic
Outline: as §1

VEGFR2 = target: T6, VEGFR2 (Homo sapiens, UniProt P35968); conditions: read-out: 7 at 1 µM % inhibition
T6 construct: gene KDR
Outline: as §1

Sequence of TGFBR1 (P36897 whole entry): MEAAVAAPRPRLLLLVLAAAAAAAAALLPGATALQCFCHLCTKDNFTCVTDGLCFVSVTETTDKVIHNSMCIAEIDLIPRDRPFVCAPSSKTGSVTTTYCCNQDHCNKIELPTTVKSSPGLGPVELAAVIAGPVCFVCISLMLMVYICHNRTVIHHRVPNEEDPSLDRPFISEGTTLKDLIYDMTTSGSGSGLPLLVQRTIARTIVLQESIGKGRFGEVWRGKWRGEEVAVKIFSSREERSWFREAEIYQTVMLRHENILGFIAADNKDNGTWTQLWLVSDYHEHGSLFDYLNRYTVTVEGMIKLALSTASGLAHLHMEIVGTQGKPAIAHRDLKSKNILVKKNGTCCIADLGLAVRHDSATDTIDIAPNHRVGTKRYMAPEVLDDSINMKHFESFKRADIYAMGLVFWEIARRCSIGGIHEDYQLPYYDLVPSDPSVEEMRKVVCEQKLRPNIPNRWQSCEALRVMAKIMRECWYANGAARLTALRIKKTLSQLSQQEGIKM
Sequence of EIF2AK1 (Q9BQI3 whole entry): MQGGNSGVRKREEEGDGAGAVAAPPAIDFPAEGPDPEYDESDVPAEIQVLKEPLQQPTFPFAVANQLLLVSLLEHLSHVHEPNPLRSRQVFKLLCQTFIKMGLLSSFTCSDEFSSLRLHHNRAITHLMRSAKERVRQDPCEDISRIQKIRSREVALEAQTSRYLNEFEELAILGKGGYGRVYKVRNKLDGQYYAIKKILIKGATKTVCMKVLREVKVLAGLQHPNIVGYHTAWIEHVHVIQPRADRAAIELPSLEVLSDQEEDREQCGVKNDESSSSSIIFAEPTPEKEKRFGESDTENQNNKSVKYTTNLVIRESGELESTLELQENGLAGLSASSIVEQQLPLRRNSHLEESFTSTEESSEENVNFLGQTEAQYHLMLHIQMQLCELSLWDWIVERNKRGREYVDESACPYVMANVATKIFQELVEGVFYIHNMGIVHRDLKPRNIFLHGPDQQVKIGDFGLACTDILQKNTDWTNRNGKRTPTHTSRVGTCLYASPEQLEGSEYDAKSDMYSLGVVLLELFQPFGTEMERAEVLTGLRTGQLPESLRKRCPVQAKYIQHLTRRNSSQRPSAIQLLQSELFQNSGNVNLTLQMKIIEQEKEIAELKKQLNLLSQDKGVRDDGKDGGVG
Sequence of PKNB(M.tuberculosis) (P9WI81 whole entry): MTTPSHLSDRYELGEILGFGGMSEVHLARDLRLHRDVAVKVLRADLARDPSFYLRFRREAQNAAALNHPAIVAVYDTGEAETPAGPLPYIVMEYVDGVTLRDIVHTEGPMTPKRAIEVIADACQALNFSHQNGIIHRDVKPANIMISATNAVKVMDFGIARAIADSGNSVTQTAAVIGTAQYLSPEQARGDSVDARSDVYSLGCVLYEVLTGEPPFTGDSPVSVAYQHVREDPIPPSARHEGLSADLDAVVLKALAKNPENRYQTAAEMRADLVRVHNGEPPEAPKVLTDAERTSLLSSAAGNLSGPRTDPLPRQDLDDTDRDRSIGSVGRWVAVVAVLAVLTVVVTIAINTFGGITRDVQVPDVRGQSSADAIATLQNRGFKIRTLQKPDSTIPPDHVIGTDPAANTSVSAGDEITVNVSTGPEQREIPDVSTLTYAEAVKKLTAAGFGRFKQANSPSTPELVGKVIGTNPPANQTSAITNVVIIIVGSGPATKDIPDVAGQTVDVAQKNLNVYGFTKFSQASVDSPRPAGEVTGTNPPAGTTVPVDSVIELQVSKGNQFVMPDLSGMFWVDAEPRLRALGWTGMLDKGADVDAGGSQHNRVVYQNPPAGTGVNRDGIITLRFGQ
Sequence of DYRK2 (Q92630 whole entry): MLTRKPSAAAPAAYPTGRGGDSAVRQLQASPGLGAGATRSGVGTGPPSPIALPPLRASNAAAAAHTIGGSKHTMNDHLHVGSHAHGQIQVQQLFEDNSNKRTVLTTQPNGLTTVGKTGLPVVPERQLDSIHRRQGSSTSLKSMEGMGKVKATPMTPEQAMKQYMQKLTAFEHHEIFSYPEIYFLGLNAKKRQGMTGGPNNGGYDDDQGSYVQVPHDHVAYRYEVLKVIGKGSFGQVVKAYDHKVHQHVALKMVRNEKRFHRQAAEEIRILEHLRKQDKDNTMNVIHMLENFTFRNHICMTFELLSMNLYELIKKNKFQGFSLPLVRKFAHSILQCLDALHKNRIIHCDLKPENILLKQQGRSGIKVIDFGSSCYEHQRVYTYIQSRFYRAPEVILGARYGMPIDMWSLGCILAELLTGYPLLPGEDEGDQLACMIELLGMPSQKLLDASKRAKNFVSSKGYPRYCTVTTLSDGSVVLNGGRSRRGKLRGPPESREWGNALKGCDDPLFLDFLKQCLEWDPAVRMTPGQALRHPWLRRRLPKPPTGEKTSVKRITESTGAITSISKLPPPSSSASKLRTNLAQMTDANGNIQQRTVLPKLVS
Sequence of LATS1 (O95835 whole entry): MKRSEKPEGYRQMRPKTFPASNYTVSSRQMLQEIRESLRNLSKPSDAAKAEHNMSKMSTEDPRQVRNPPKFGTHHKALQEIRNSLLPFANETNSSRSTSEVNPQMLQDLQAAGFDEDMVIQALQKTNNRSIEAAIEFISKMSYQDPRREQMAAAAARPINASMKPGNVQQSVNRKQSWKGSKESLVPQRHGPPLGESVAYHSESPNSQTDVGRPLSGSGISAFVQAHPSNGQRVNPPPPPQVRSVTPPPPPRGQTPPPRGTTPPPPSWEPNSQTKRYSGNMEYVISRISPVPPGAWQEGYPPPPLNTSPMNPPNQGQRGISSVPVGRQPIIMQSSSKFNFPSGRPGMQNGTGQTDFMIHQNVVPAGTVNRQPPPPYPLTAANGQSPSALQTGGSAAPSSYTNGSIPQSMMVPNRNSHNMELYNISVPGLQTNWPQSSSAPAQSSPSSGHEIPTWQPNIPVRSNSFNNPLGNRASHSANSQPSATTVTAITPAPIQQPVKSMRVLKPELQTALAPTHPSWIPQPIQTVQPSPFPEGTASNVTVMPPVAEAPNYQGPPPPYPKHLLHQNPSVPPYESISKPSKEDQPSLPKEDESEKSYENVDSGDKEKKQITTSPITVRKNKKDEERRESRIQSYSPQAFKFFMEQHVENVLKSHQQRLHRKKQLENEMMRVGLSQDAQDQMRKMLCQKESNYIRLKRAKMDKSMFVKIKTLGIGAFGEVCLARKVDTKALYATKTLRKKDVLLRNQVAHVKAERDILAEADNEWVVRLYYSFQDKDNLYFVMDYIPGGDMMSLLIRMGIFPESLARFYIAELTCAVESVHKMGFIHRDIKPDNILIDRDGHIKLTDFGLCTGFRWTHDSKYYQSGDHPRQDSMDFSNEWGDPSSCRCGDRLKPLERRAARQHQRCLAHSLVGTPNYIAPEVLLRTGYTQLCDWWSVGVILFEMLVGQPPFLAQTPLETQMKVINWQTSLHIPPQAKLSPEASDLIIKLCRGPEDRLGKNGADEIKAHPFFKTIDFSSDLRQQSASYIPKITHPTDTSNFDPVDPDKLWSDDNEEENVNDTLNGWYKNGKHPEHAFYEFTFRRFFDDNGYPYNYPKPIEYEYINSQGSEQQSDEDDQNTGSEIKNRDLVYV
Sequence of MAP3K3 (Q99759 whole entry): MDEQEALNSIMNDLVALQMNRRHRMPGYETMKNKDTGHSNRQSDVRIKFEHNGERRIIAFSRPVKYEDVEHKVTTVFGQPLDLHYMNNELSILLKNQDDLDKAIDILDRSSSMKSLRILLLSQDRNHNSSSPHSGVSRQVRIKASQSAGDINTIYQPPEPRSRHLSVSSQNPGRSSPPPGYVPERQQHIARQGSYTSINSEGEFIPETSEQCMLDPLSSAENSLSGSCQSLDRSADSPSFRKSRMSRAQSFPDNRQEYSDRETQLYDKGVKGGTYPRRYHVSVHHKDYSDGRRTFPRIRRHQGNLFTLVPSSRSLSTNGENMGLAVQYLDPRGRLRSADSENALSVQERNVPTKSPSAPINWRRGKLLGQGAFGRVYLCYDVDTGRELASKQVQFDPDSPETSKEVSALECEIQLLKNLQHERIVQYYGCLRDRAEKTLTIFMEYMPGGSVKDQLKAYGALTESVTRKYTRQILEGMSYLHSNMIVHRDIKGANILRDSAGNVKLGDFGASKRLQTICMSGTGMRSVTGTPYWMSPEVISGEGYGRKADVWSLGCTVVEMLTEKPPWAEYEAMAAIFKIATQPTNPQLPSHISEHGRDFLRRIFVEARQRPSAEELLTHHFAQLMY
Sequence of ACVR2A (P27037 whole entry): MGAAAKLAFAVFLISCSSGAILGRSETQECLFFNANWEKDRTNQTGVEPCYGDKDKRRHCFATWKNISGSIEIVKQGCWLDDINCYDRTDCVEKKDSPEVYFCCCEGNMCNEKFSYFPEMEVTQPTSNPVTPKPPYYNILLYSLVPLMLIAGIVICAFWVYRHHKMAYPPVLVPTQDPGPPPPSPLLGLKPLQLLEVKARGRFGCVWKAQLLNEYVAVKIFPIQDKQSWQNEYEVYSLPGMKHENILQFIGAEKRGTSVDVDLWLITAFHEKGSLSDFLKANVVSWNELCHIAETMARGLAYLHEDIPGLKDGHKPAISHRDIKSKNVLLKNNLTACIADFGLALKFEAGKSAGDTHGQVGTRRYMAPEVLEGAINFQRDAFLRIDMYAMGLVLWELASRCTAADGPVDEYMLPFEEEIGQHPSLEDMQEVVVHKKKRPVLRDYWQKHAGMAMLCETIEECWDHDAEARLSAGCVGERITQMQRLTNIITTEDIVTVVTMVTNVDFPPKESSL
T2 sequence (P52564 whole entry): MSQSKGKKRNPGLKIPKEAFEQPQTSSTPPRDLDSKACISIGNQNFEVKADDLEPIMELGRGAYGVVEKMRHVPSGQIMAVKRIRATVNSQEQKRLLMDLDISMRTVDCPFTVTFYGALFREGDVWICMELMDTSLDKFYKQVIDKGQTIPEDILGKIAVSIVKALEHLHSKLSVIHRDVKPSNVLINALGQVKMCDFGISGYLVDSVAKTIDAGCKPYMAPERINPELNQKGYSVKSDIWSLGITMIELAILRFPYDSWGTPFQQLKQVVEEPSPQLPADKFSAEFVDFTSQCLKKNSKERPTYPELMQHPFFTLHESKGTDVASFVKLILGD

CNS(=O)(=O)c1ccc(N(C)C)c(Nc2ncnc3cc(OC)c(OC)cc23)c1 [compound 7, 3-((6,7-dimethoxyquinazolin-4-yl)amino)-4-(dimethylamino)-N-methylbenzenesulfonamide]
inhibition at 1 µM (ACVR2A): 0% | inhibition at 1 µM (ASK2): 30% | inhibition at 1 µM (CSNK1A1): 0% | inhibition at 1 µM (CSNK1G3): 11% | inhibition at 1 µM (DDR1): 0% | inhibition at 1 µM (DYRK2): 0% | inhibition at 1 µM (EGFR(L858R)): 8% | inhibition at 1 µM (EGFR(L861Q)): 0% | inhibition at 1 µM (EIF2AK1): 0% | inhibition at 1 µM (FLT3(D835V)): 91.8% | inhibition at 1 µM (HIPK2): 0% | inhibition at 1 µM (KIT(V559D)): 28% | inhibition at 1 µM (LATS1): 0% | inhibition at 1 µM (MAP3K3): 30% | inhibition at 1 µM (MEK6): 0% | inhibition at 1 µM (MERTK): 0% | inhibition at 1 µM (PKNB(M.tuberculosis)): 23% | inhibition at 1 µM (SNARK): 0% | inhibition at 1 µM (SRPK1): 0% | inhibition at 1 µM (TGFBR1): 0% | inhibition at 1 µM (TIE2): 0% | inhibition at 1 µM (TNIK): 7% | inhibition at 1 µM [1]: 0% | inhibition at 1 µM (VEGFR2): 26%

From PMC7180948, “New Insights into 4-Anilinoquinazolines as Inhibitors of Cardiac Troponin I–Interacting Kinase (TNNi3K)” (Molecules, 2020)
